“And” between values parts separate entries of the source, which are not always exact repeats. Identical values can stand only once. Inconclusive results and toxic doses are left out. Rule for the calls: active = survival T/C of 150% or more; inactive = T/C below 125% in these data.
Test system: CD2F1 mice, L1210 leukemia ip, survival T/C
Test: NCI In Vivo Anticancer Drug Screen. Data for tumor model L1210 Leukemia (intraperitoneal) in CD2F1 (CDF1) mice
Conditions: higher = longer survival
Outline: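 In this screen, transplantable tumors were grown in mice given either the compound or its vehicle. Results were expressed as the treated measurement relative to the control measurement.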

[1] = endpoint: mean survival time, dose: 1.56 mg/kg/injection, schedule: Q01DX009 (ip), vehicle: saline
[2] = endpoint: mean survival time, dose: 3.13 mg/kg/injection, schedule: Q01DX009 (ip), vehicle: saline
[3] = endpoint: mean survival time, dose: 6.25 mg/kg/injection, schedule: Q01DX009 (ip), vehicle: saline
[4] = endpoint: mean survival time, dose: 12.5 mg/kg/injection, schedule: Q01DX009 (ip), vehicle: saline
[5] = endpoint: mean survival time, dose: 25.0 mg/kg/injection, schedule: Q01DX009 (ip), vehicle: saline
[6] = endpoint: mean survival time, dose: 50.0 mg/kg/injection, schedule: Q01DX009 (ip), vehicle: saline
[7] = endpoint: mean survival time, dose: 100.0 mg/kg/injection, schedule: Q01DX009 (ip), vehicle: saline
[8] = endpoint: mean survival time, dose: 200.0 mg/kg/injection, schedule: Q01DX009 (ip), vehicle: saline
[9] = endpoint: mean survival time, dose: 100.0 mg/kg/injection, schedule: Q01DX009 (ip), vehicle: saline with Tween-80
[10] = endpoint: mean survival time, dose: 100.0 mg/kg/injection, schedule: Q04DX003 (ip), vehicle: saline with Tween-80
[11] = endpoint: mean survival time, dose: 200.0 mg/kg/injection, schedule: Q04DX003 (ip), vehicle: saline with Tween-80
[12] = endpoint: mean survival time, dose: 400.0 mg/kg/injection, schedule: Q04DX003 (ip), vehicle: saline with Tween-80
[13] = endpoint: mean survival time, dose: 200.0 mg/kg/injection, schedule: Q01DX009 (ip), vehicle: saline with Tween-80
[14] = endpoint: mean survival time, dose: 100.0 mg/kg/injection, schedule: Q01DX001 (ip), vehicle: saline
[15] = endpoint: mean survival time, dose: 200.0 mg/kg/injection, schedule: Q01DX001 (ip), vehicle: saline
[16] = endpoint: mean survival time, dose: 400.0 mg/kg/injection, schedule: Q01DX001 (ip), vehicle: saline

Measured: T/C

NC1=NCN(C2OC(CO)C(O)C2O)C(=O)N1 (stereo not drawn)
inactive: [1] 96 % of control | endpoint: mean survival time, dose: 3.12 mg/kg/injection, schedule: Q01DX009 (ip), vehicle: saline 113 % of control and 120 % of control and 93 % of control | [2] 113 % of control | [3] 96 % of control | [4] 89 % of control | [5] 90 % of control and 100 % of control | [6] 110 % of control | endpoint: mean survival time, dose: 50.0 mg/kg/injection, schedule: Q01DX009 (oral), vehicle: saline 96 % of control | [7] 95 % of control | endpoint: mean survival time, dose: 100.0 mg/kg/injection, schedule: Q01DX009 (oral), vehicle: saline 110 % of control | [8] 95 % of control | endpoint: mean survival time, dose: 200.0 mg/kg/injection, schedule: Q01DX009 (oral), vehicle: saline 119 % of control | endpoint: mean survival time, dose: 400.0 mg/kg/injection, schedule: Q01DX009 (ip), vehicle: saline 124 % of control | endpoint: mean survival time, dose: 600.0 mg/kg/injection, schedule: Q01DX009 (ip), vehicle: saline 100 % of control | endpoint: mean survival time, dose: 800.0 mg/kg/injection, schedule: Q01DX009 (oral), vehicle: saline 118 % of control | endpoint: median survival time, dose: 1.56 mg/kg/injection, schedule: Q01DX009 (ip), vehicle: saline 110 % of control | endpoint: median survival time, dose: 32.0 mg/kg/injection, schedule: Q03HX008 (ip), vehicle: saline 124 % of control | endpoint: median survival time, dose: 64.0 mg/kg/injection, schedule: Q01DX001 (oral), vehicle: saline 98 % of control | endpoint: median survival time, dose: 64.0 mg/kg/injection, schedule: Q01DX009 (oral), vehicle: saline 100 % of control | endpoint: median survival time, dose: 64.0 mg/kg/injection, schedule: Q03HX008 (ip), vehicle: saline 124 % of control | endpoint: median survival time, dose: 128.0 mg/kg/injection, schedule: Q03HX024 (oral), vehicle: saline 113 % of control | endpoint: median survival time, dose: 128.0 mg/kg/injection, schedule: Q04DX003 (oral), vehicle: saline 98 % of control | endpoint: median survival time, dose: 256.0 mg/kg/injection, schedule: Q01DX001 (ip), vehicle: saline 124 % of control | endpoint: median survival time, dose: 256.0 mg/kg/injection, schedule: Q01DX001 (oral), vehicle: saline 100 % of control | endpoint: median survival time, dose: 256.0 mg/kg/injection, schedule: Q03HX008 (oral), vehicle: saline 118 % of control | endpoint: median survival time, dose: 256.0 mg/kg/injection, schedule: Q04DX003 (oral), vehicle: saline 100 % of control | endpoint: median survival time, dose: 512.0 mg/kg/injection, schedule: Q03HX008 (oral), vehicle: saline 124 % of control | endpoint: median survival time, dose: 512.0 mg/kg/injection, schedule: Q04DX003 (oral), vehicle: saline 113 % of control | endpoint: median survival time, dose: 1024.0 mg/kg/injection, schedule: Q01DX001 (oral), vehicle: saline 124 % of control | endpoint: median survival time, dose: 1024.0 mg/kg/injection, schedule: Q01DX009 (ip), vehicle: saline 92 % of control and 98 % of control | endpoint: median survival time, dose: 1024.0 mg/kg/injection, schedule: Q01DX009 (sc), vehicle: saline 91 % of control

c1ccc(CNCCNCc2ccccc2)cc1
inactive: [9] 95 % of control | [10] 97 % of control

C1OC2OC3OCOC3C2O1 (stereo not drawn)
inactive: [10] 101 % of control | [11] 95 % of control | [12] 95 % of control

CCCCCCCCCCCc1cc(=O)n(-c2cc(Cl)ccc2Cl)n1C
inactive: endpoint: mean survival time, dose: 25.0 mg/kg/injection, schedule: Q04DX002 (ip), vehicle: saline with Tween-80 96 % of control | endpoint: mean survival time, dose: 50.0 mg/kg/injection, schedule: Q04DX002 (ip), vehicle: saline with Tween-80 88 % of control | endpoint: mean survival time, dose: 100.0 mg/kg/injection, schedule: Q04DX002 (ip), vehicle: saline with Tween-80 86 % of control

CC(O)C(NC(=O)OC(C)(C)C)C(=O)ON1C(=O)CCC1=O (stereo not drawn)
inactive: endpoint: mean survival time, dose: 25.0 mg/kg/injection, schedule: Q01DX009 (ip), vehicle: saline with Tween-80 92 % of control | endpoint: mean survival time, dose: 50.0 mg/kg/injection, schedule: Q01DX009 (ip), vehicle: saline with Tween-80 94 % of control | [9] 96 % of control and 98 % of control

NC(=S)N/N=C1/CCN2CCCc3cccc1c32
inactive: endpoint: mean survival time, dose: 5.0 mg/kg/injection, schedule: Q01DX001 (ip), vehicle: saline with Tween-80 98 % of control | endpoint: mean survival time, dose: 10.0 mg/kg/injection, schedule: Q01DX001 (ip), vehicle: saline with Tween-80 97 % of control | endpoint: mean survival time, dose: 20.0 mg/kg/injection, schedule: Q01DX001 (ip), vehicle: saline with Tween-80 98 % of control

CC(=O)[O][Hg][c]1cc(-c2ccc(N=Nc3c(S(=O)(=O)O)cc4cccc(N)c4c3O)cc2)ccc1N=Nc1c(S(=O)(=O)O)cc2cccc(N)c2c1O
inactive: endpoint: mean survival time, dose: 6.25 mg/kg/injection, schedule: Q04DX003 (ip), vehicle: saline with Tween-80 98 % of control | endpoint: mean survival time, dose: 12.5 mg/kg/injection, schedule: Q04DX003 (ip), vehicle: saline with Tween-80 96 % of control | endpoint: mean survival time, dose: 25.0 mg/kg/injection, schedule: Q04DX003 (ip), vehicle: saline with Tween-80 104 % of control

COC(=O)C1C2C=CC(C3C=CC32)C1C(=O)OC (stereo not drawn)
inactive: [9] 97 % of control | [13] 94 % of control | endpoint: mean survival time, dose: 400.0 mg/kg/injection, schedule: Q01DX009 (ip), vehicle: saline with Tween-80 95 % of control

CC[N+]1(CC)N=C([O-])N(C)C1=O
inactive: [14] 103 % of control | [15] 101 % of control | [16] 97 % of control

CN(C)C(=O)c1cccc(COc2ccc(N3C(N)=NC(N)=NC3(C)C)cc2Cl)c1
inactive: endpoint: mean survival time, dose: 0.2 mg/kg/injection, schedule: Q01DX009 (ip), vehicle: saline 100 % of control | endpoint: mean survival time, dose: 0.4 mg/kg/injection, schedule: Q01DX009 (ip), vehicle: saline 98 % of control | [1] 98 % of control | [2] 100 % of control | [3] 98 % of control | [4] 98 % of control | endpoint: mean survival time, dose: 65.0 mg/kg/injection, schedule: Q01DX009 (ip), vehicle: saline 97 % of control

COC(=O)c1cccc(C)c1O
inactive: [9] 102 % of control | [10] 97 % of control | [13] 98 % of control | [11] 96 % of control | [12] 93 % of control

C#CCn1c2ccccc2c2ccccc21
inactive: endpoint: mean survival time, dose: 100.0 mg/kg/injection, schedule: Q04DX003 (ip), vehicle: saline 106 % of control | endpoint: mean survival time, dose: 200.0 mg/kg/injection, schedule: Q04DX003 (ip), vehicle: saline 98 % of control | endpoint: mean survival time, dose: 400.0 mg/kg/injection, schedule: Q04DX003 (ip), vehicle: saline 104 % of control

CCC(C)(C)OC(=O)Nc1ccc(C)c(NC(=O)OC(C)(C)CC)c1
inactive: endpoint: mean survival time, dose: 75.0 mg/kg/injection, schedule: Q01DX001 (ip), vehicle: other 86 % of control | endpoint: mean survival time, dose: 150.0 mg/kg/injection, schedule: Q01DX001 (ip), vehicle: other 86 % of control | endpoint: mean survival time, dose: 300.0 mg/kg/injection, schedule: Q01DX001 (ip), vehicle: other 90 % of control

CC(=O)c1cc(-c2ccccc2)nc2c(Cl)cc(Cl)cc12
inactive: [14] 102 % of control | [15] 91 % of control | [16] 103 % of control

Nc1nc(N)c2cc(CNc3ccc(C(=O)NC(CC(=O)O)CC(=O)O)cc3)cnc2n1
inactive: endpoint: mean survival time, dose: 50.0 mg/kg/injection, schedule: Q01DX009 (ip), vehicle: Klucel (hydroxypropylcellulose) (HPC) 94 % of control | endpoint: mean survival time, dose: 100.0 mg/kg/injection, schedule: Q01DX009 (ip), vehicle: Klucel (hydroxypropylcellulose) (HPC) 98 % of control

CCCCCCCCCCCC1=C(O)C(=O)C=C(O)C1=O
inactive: endpoint: mean survival time, dose: 12.5 mg/kg/injection, schedule: Q01DX001 (ip), vehicle: saline 102 % of control | endpoint: mean survival time, dose: 25.0 mg/kg/injection, schedule: Q01DX001 (ip), vehicle: saline 123 % of control | endpoint: mean survival time, dose: 50.0 mg/kg/injection, schedule: Q01DX001 (ip), vehicle: saline 101 % of control

CN1COc2c(Cl)cc(Cl)cc2C1
inactive: [5] 104 % of control | [6] 104 % of control | [7] 115 % of control | [10] 98 % of control

CCCC(=O)N(CC)CC
inactive: [6] 94 % of control | [7] 98 % of control | [8] 98 % of control

C=C(Br)CNC(=O)CCC
inactive: endpoint: mean survival time, dose: 2.5 mg/kg/injection, schedule: Q01DX009 (ip), vehicle: saline with Tween-80 107 % of control | endpoint: mean survival time, dose: 5.0 mg/kg/injection, schedule: Q01DX009 (ip), vehicle: saline with Tween-80 106 % of control | endpoint: mean survival time, dose: 10.0 mg/kg/injection, schedule: Q01DX009 (ip), vehicle: saline with Tween-80 102 % of control

O=[N+]([O-])c1cccc(OCCOc2ccccc2)c1
inactive: [10] 98 % of control | [11] 94 % of control | [12] 91 % of control

— PubChem BioAssay AID256 (DTP/NCI, 2004)
